The values that follow come from patent US20120003156A1, “METHODS FOR TREATING NEOPLASIA BY INHIBITING LACTATE DEHYDROGENASE AND/OR NICOTINAMIDE PHOSPHORIBOSYLTRANSFERASE” (The Johns Hopkins University, priority 2008, published 2012).

Assay [1] deals with P493 cells. In words: Oxygen consumption, Clark-type oxygen electrode. The following applies: FX11 treatment. Type of assay: cell-based, human. As for the experimental part:
Oxygen consumption was measured using a Clark-type oxygen electrode (Oxytherm System, Hansatech Instruments Ltd). 5×10^6 cells in 1 ml medium were placed in the chamber above a membrane which is permeable to oxygen. Oxygen diffuses through the membrane and is reduced at the cathode surface so that a current flows through the circuit which is completed by a thin layer of KCl solution. The current which is generated bears a direct, stoichiometric relationship to the oxygen reduced, and is converted to a digital signal. Determinations were done in triplicate, and the entire experiment was done twice.

In assay [2] the target is LDH (Homo sapiens, UniProt P00338). Put plainly: LDH activity, decrease in absorbance at 340 nm of NADH. The format is biochemical. As for the experimental part: In other studies, pyruvate and NADH were used as the substrates to test the inhibition of LDH by FX11. […] To further document the selective binding of FX11 versus E to LDHA, affinity chromatography was performed with P493 cell lysate using FX11 or E immobilized on Sepharose beads. […] GAPDH is another pivotal glycolytic enzyme that converts NAD^+ to NADH. The question of whether FX11 could inhibit its NAD^+-dependent conversion of glyceraldehyde-3-phosphate to bis-phosphoglycerate was addressed.

Assay [3] relates to human pancreatic cell line P10. In words: Cell growth. Type of assay: cell-based.
In assay [4] the test system is P493 cells. In words: Lactate production and glucose utilization, ABL700 Radiometer analyzer. The format is cell-based, human. As for the experimental part:
Lactate production was measured by the ABL700 Radiometer analyzer according to the manufacturer's instructions. 10^5 cells were grown at 37° C. in a 5% CO2, 95% air incubator and treated with 9 μM FX11 or 0.5 nM FK866 for 24 hours.

Assay [5] deals with P493 human lymphoma B cells. In words: Cell population growth, trypan blue live cell count. The format is cell-based. How it is done: (§1) P493 human lymphoma B cells were maintained in RPMI 1640 with 10% fetal bovine serum (FBS) and 1% penicillin-streptomycin. P198 human pancreatic cancer cells; RCC4, RCC4-VHL human renal carcinoma cells; MCF-7 and MDA-MB-453 breast cancer cells were maintained in high glucose (4.5 mg/ml) DMEM with 10% FBS and 1% penicillin-streptomycin. Non-hypoxic cells (20% O2) were maintained at 37° C. in a 5% CO2, 95% in an air incubator. Hypoxic cells (1% O2) were maintained in a controlled atmosphere chamber (PLAS-LABS, Lansing, Mich.) with a gas mixture containing 1% O2, 5% CO2, and 94% N2 at 37° C. for the indicated time. Bright live cells were counted daily in a hemacytometer using trypan blue dye to exclude dead cells. All cells were grown at a concentration of 10^5 cells/ml. All drugs treatment began at day 0.
siRNAs targeting human LDHA (ON-TARGETplus SMARTpool) were purchased from Dharmacon Research Inc. Targeting sequences for LDHA were a pool of the following four target sequences: sequence 1, […]; sequence 2, […]; sequence 3, […]; sequence 4, […]. Accordingly, one of skill in the art would recognize the siRNA sequences corresponding to these targets. For P493 human lymphoma B cells, transfection of siRNAs was performed using an Amaxa Nucleotransfection device according to the manufacturer's instructions. Briefly, 2 μg siLDHA ON-TARGETplus SMARTpool or ON-TARGETplus Non-targeting Pool (Dharmacon Research Inc.) were transfected into 2×10^6 cells at 0 hours. […]. The remaining cells were harvested for immunoblot analysis. For P198 human pancreatic cancer cells, transfection of siRNAs was performed using X-tremeGENE siRNA Transfection Reagent (Roche) according to the manufacturer's instructions.

For assay [6], the system named is P493 cells. In words: Mitochondrial membrane potential by JC-1 flow cytometry. The format is cell-based, human. The following applies: 9 μM FX11 or/and FK866, 24 hours. The source says:
The lipophilic cation dye (5,5′,6,6′-tetrachloro-1,1′,3,3′-tetraethylbenzimidazolcarbocyanine iodide, JC-1) (Invitrogen) was used to detect the loss of the mitochondrial membrane potential. The negative charge established by the intact mitochondrial membrane potential lets the lipophilic dye stain the mitochondria bright red which emits in channel 2 (FL2). When the mitochondrial membrane potential collapses, JC-1 remains in the cytoplasm in a green fluorescent monomeric emission in channel 1 (FL1). JC-1 reversibly changes its color from green to orange as membrane potentials increase (over values of 80-100 mV). 10^5 cells/ml were treated with 9 μM FX11 or/and FK866 for 24 hours. Stained cells were analyzed in FACScan flow cytometers (BD Bioscience).

Assay [7] concerns P493 cells. Put plainly: ROS measurement by DCFDA flow cytometry. Type of assay: cell-based, human. The following applies: 9 μM FX11 or FK866, 24 hours. As for the experimental part: The measurement of intracellular ROS production was measured by staining cells with 5-(and-6)-carboxy-2′,7′-dichlorodihydrofluorescein diacetate (carboxy-H2DCFDA; Molecular Probes) according to the manufacturer's instructions. 10^5 cells/ml were treated with 9 μM FX11 or FK866 for 24 hours. Stained cells were analyzed in FACScan flow cytometers (BD Bioscience).
On the technique in general: In flow cytometry, cells or beads pass a laser one at a time.

In assay [8] the test system is P198 human pancreatic cancer cells. In words: Cell population growth. The format is cell-based. The following applies: 1% O2 vs normoxia. How it is done: as §1
siRNAs targeting human LDHA (ON-TARGETplus SMARTpool) were purchased from Dharmacon Research Inc. Targeting sequences for LDHA were a pool of the following four target sequences: sequence 1, […]; sequence 2, […]; sequence 3, […]; sequence 4, […]. Accordingly, one of skill in the art would recognize the siRNA sequences corresponding to these targets. For P493 human lymphoma B cells, transfection of siRNAs was performed using an Amaxa Nucleotransfection device according to the manufacturer's instructions. […]

Assay [9] has as its system P493 human lymphoma B cells. Put plainly: Human P493 B cell lymphoma xenograft. Type of assay: in vivo, SCID mice. As for the experimental part: (§2) The animal studies were performed according to the protocols approved by the Animal Care and Use Committee at Johns Hopkins University. In order to generate tumorigenesis study in xenograft model, 2.0×10^7 P493 human lymphoma B cells or 5×10^6 human pancreatic cancer cells were injected subcutaneously into male SCID mice (NCI) or athymic Hsd: RH-Foxn1nu mice (Harlan), respectively, as previously described (Feldmann et al., 2007; Gao et al., 2009; Gao et al., 2007). When the tumor volume reached 200 mm^3, groups of 5 mice were injected with control 2% DMSO or 42 μg FX11 and/or 100 μg FK866. The tumor volumes were measured using a digital caliper after 4, 7 and 10 days of treatment. Tumor volumes were calculated using the following formula: [length (mm)×width (mm)×width (mm)×0.52]. The entire experiment was repeated seven times.
(In general: A xenograft is tissue or cells of one species grown in another, often human tumour cells in immunodeficient mice.)

Assay [10] deals with GAPDH (Homo sapiens, UniProt P04406). Put plainly: GAPDH activity and Ki. Type of assay: biochemical.
GAPDH, sequence (P04406 whole entry): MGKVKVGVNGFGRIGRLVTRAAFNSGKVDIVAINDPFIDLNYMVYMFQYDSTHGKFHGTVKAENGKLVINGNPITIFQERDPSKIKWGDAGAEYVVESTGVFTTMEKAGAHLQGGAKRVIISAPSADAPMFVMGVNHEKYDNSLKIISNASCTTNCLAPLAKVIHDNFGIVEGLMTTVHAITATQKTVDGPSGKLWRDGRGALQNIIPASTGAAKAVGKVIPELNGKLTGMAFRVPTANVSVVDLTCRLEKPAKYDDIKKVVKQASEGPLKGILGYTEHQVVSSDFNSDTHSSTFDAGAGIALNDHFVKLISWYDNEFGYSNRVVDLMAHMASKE
Experimental: The reaction velocity of purified human LDHA or GAPDH was determined by a decrease or increase in absorbance at 340 nm of NADH, respectively. […] The GADPH activity was assessed using the protocol described in Worthington Enzyme Manual: http://www.worthington-biochem.com/GAPD/assay.html with varying concentrations of NAD^+. Ki values were determined from double-reciprocal plots by linear regression analysis using SigmaPlot Enzyme Kinetic software.
The subject of assay [11] is P198 human pancreatic cancer xenografts. In words: Human P198 pancreatic cancer xenograft. The format is in vivo, athymic nu mice. The following applies: treatment from 200 mm^3; daily IP 42 μg FX11; compared with E. As for the experimental part:
as §2

Entries after “also recorded” stand apart in the source; their conditions may differ.

As for `CCCc1c(O)c(O)c(C(=O)O)c2cc(Cc3ccccc3)c(C)cc12` [FX11, 2,3-dihydroxy-6-methyl-7-(phenylmethyl)-4-propylnaphthalene-1-carboxylic acid], the oxygen consumption entry in assay [1] was “increased oxygen consumption”. Moreover, in [2] (6 μM FX11, −0.084 without FX11), the “slope of decrease in absorbance at 340 nm” value is on record as −0.029. Further, in assay [2] (6 μM, pyruvate and NADH as substrates), the LDH activity result is on record as “completely abrogated”. Further, the “concentration inhibiting LDH activity in the conversion of lactate to pyruvate” value in assay [2] (lactate to pyruvate direction) came out at 34 µM. Also, the growth inhibition entry in assay [3] is reported as “dose-dependent manner”. Besides, the “cellular production of lactate” value in assay [4] (9 μM FX11, 24 hours) is given as “significantly diminished”. In addition, the glucose utilization result in assay [4] (FX11 treatment for 24 hours) is given as “reduction of glucose utilization”. In assay [5] (9 μM FX11), the “growth inhibition at 1% O2 compared with normoxia” value is recorded as “increased” and the “proliferative rate of P493 cells with siRNA knock-down of LDHA” value is on record as “not further slowed”. Moreover, the “inhibition of P493 cells in the absence of glucose” value in assay [5] (glucose-depleted medium) is listed as “could not inhibit P493 cells further”. Also, in assay [5] (normoxia (20% O2) and hypoxia (1% O2)), the “inhibition of P493 cells, dose-response” value is “dose-dependent manner that was augmented in hypoxia”. Moreover, the “proliferation of P493 cells” value in [5] (single agent) is “diminished proliferation”. The mitochondrial membrane potential entry in assay [6] is “decreased”. Further, in [7], the ROS production entry is listed as “increased”. The “effect of hypoxia on inhibition of P198 cells by FX11” value in assay [8] is on record as “sensitized”. Further, in assay [9] (daily IP, 42 μg FX11 or 0.8 mg doxycycline, vs vehicle 2% DMSO), the “tumor growth of palpable P493 xenografts” value is “remarkable inhibition of tumor growth”. Moreover, in assay [9] (treatment from 200 mm^3, daily IP 42 μg FX11 and/or 100 μg FK866, ten days), the “tumor growth of established P493 lymphoma xenografts” value is “cytostatic, but significant effect; also recorded: effectively inhibited”. Besides, in assay [10] (74 μM), the GAPDH activity result is recorded as “not inhibited”. Besides, the inhibition constant Ki in [10] (GAPDH, Michaelis-Menten kinetics, estimated) was more than 300 µM. In addition, the “tumor growth of P198 pancreatic tumor xenografts” value in assay [11] is “significant response; also recorded: effectively inhibited”.

Broadly, the Ki is a dissociation constant, usually derived from enzyme kinetics or from competition with a known ligand.
